Series [1] deals with interferon (α). Description: Cytokine Induction in Human Cells: interferon (α) by ELISA. As to conditions: human PBMC, 18 to 24 hours incubation, compounds generally tested at 30-0.014 μM; read-out: Lowest Effective Concentration Interferon. Format: cell-based. The text has this:
(§1) An in vitro human blood cell system is used to assess cytokine induction. Activity is based on the measurement of interferon and tumor necrosis factor (α) (IFN and TNF, respectively) secreted into culture media as described by Testerman et. al. In “Cytokine Induction by the Immunomodulators Imiquimod and S-27609”, Journal of Leukocyte Biology, 58, 365-372 (September, 1995).
(§2) Whole blood from healthy human donors is collected by venipuncture into EDTA vacutainer tubes. Peripheral blood mononuclear cells (PBMC) are separated from whole blood by density gradient centrifugation using Histopaque®-1077. Blood is diluted 1:1 with Dulbecco's Phosphate Buffered Saline (DPBS) or Hank's Balanced Salts Solution (HBSS). The PBMC layer is collected and washed twice with DPBS or HBSS and resuspended at 4×10^6 cells/mL in RPMI complete. The PBMC suspension is added to 48 well flat bottom sterile tissue culture plates (Costar, Cambridge, Mass. or Becton Dickinson Labware, Lincoln Park, N.J.) containing an equal volume of RPMI complete media containing test compound.
(§3) The compounds are solubilized in dimethyl sulfoxide (DMSO). The DMSO concentration should not exceed a final concentration of 1% for addition to the culture wells. The compounds are generally tested at concentrations ranging from 30-0.014 μM.
(§4) The solution of test compound is added at 60 μM to the first well containing RPMI complete and serial 3 fold dilutions are made in the wells. The PBMC suspension is then added to the wells in an equal volume, bringing the test compound concentrations to the desired range (30-0.014 μM). The final concentration of PBMC suspension is 2×10^6 cells/mL. The plates are covered with sterile plastic lids, mixed gently and then incubated for 18 to 24 hours at 37° C. in a 5% carbon dioxide atmosphere.
(§5) Following incubation the plates are centrifuged for 10 minutes at 1000 rpm (˜200×g) at 4° C. The cell-free culture supernatant is removed with a sterile polypropylene pipet and transferred to sterile polypropylene tubes. Samples are maintained at −30 to −70° C. until analysis. The samples are analyzed for interferon (α) by ELISA and for tumor necrosis factor (α) by ELISA or IGEN Assay
Interferon (α) concentration is determined by ELISA using a Human Multi-Species kit from PBL Biomedical Laboratories, New Brunswick, N.J. Results are expressed in pg/mL.
(§6) The table below lists the lowest concentration found to induce interferon and the lowest concentration found to induce tumor necrosis factor for each compound.

Series [2] relates to tumor necrosis factor (α). Description: Cytokine Induction in Human Cells: tumor necrosis factor (α) by ELISA or IGEN Assay. The format is cell-based. Set-up: key to Lowest Effective Concentration Tumor Necrosis Factor: A “*” indicates that no induction was seen at any of the tested concentrations. As to conditions: human PBMC, 18 to 24 hours incubation, compounds generally tested at 30-0.014 μM; for minimal effective concentration: read-out: Lowest Effective Concentration Tumor Necrosis Factor.
Excerpt: as §1, §2, §3, §4, §5
Tumor necrosis factor (α) (TNF) concentration is determined using ELISA kits available from Biosource International, Camarillo, Calif. Alternately, the TNF concentration can be determined by Origen® M-Series Immunoassay and read on an IGEN M-8 analyzer from IGEN International, Gaithersburg, Md. The immunoassay uses a human TNF capture and detection antibody pair from Biosource International, Camarillo, Calif. Results are expressed in pg/mL.
as §6
Background: ELISA stands for enzyme-linked immunosorbent assay.

A word on the melting point: it is the temperature of the solid-liquid transition. For the compound `Cc1nc(N)c2nc(C)n(CCCCNS(C)(=O)=O)c2c1C` [Example 7, N-[4-(4-amino-2,6,7-trimethyl-1H-imidazo[4,5-c]pyridin-1-yl)butyl]methanesulfonamide], the melting point is 228 to 230 °C. The minimal effective concentration in series [1] is 0.37 µM. Also, the “Lowest Effective Concentration Tumor Necrosis Factor” value in series [2] is “*”.
The compound `CCCCc1nc2c(N)nc(C)c(C)c2n1CCCCNS(=O)(=O)N(C)C` [Example 6, N′-[4-(4-Amino-2-butyl-6,7-dimethyl-1H-imidazo[4,5-c]pyridin-1-yl)butyl]-N,N-dimethylsulfamide] had a melting point of 129.5 to 131 °C. For the same compound, the minimal effective concentration in series [1] amounted to 0.01 µM. The minimal effective concentration in series [2] was 0.01 µM.
For `CCOCc1nc2c(N)nc(C)c(C)c2n1CCCNC(=O)N1CCOCC1` [Example 14, N-{3-[4-amino-2-(ethoxymethyl)-6,7-dimethyl-1H-imidazo[4,5-c]pyridin-1-yl]propyl}morpholin-4-ylcarboxamide], the melting point fell in the range of 140.5 to 142.2 °C.
Turning to `CCCCc1nc2c(N)nc(C)c(C)c2n1CCCCNS(=O)(=O)c1ccc(F)cc1` (hydrate or solvate) [Example 3, N-[4-(4-Amino-2-butyl-6,7-dimethyl-1H-imidazo[4,5-c]pyridin-1-yl)butyl]-4-fluorobenzenesulfonamide Hydrate], the melting point is 133.1 to 133.7 °C.
Consider `CCCCc1nc2c(N)nc(C)c(C)c2n1CCCCNC(=O)Nc1ccccc1` [Example 4, N-[4-(4-Amino-2-butyl-6,7-dimethyl-1H-imidazo[4,5-c]pyridin-1-yl)butyl]-N′-phenylurea], for which the melting point is 195.8 to 196.8 °C. Besides, in series [1], the minimal effective concentration is 0.12 µM. Further, the minimal effective concentration in series [2] came to 0.37 µM.
`Cc1nc(N)c2nc(C)n(CCCNC(=O)N3CCOCC3)c2c1C` [Example 13, N-[3-(4-amino-2,6,7-trimethyl-1H-imidazo[4,5-c]pyridin-1-yl)propyl]morpholin-4-ylcarboxamide] returned a melting point of 128.9 to 129.7 °C.
In turn, `CCCCc1nc2c(N)nc(C)c(C)c2n1CCCCNS(C)(=O)=O` [Example 2, N-[4-(4-Amino-2-butyl-6,7-dimethyl-1H-imidazo[4,5-c]pyridin-1-yl)butyl]methanesulfonamide] came in with a melting point of 130 to 130.5 °C. For the same compound, in series [1], the minimal effective concentration was found to be 0.0046 µM. For the same compound, the minimal effective concentration in series [2] was found to be 0.01 µM.
In the case of `Cc1nc(N)c2ncn(CCCCNC(=O)N3CCOCC3)c2c1C` [Example 11, N-[4-(4-amino-6,7-dimethyl-1H-imidazo[4,5-c]pyridin-1-yl)butyl]morpholin-4-ylcarboxamide], the melting point lay in the range of 163.7 to 167 °C.
With `CCOCc1nc2c(N)nc(C)c(C)c2n1CCCCNS(C)(=O)=O` [Example 8, N-{4-[4-amino-2-(ethoxymethyl)-6,7-dimethyl-1H-imidazo[4,5-c]pyridin-1-yl]butyl}methanesulfonamide], the melting point lay within 165 to 167 °C. In addition, in series [1], the minimal effective concentration was determined as 0.04 µM. Also, in series [2], the minimal effective concentration came to 10 µM.

These data come from US6903113B2, “Urea substituted imidazopyridines” (3M Innovative Properties Company, priority 2000, dated 2005).
